Measurements published in ChEMBL document CHEMBL1144605, “Discovery of an androgen receptor modulator pharmacophore based on 2-quinolinones” (Bioorg Med Chem Lett, 2007).

Experiments:
Androgen receptor [1] = molecular target: T1, Androgen receptor (Homo sapiens, UniProt P10275)
T1 sequence (P10275 whole entry): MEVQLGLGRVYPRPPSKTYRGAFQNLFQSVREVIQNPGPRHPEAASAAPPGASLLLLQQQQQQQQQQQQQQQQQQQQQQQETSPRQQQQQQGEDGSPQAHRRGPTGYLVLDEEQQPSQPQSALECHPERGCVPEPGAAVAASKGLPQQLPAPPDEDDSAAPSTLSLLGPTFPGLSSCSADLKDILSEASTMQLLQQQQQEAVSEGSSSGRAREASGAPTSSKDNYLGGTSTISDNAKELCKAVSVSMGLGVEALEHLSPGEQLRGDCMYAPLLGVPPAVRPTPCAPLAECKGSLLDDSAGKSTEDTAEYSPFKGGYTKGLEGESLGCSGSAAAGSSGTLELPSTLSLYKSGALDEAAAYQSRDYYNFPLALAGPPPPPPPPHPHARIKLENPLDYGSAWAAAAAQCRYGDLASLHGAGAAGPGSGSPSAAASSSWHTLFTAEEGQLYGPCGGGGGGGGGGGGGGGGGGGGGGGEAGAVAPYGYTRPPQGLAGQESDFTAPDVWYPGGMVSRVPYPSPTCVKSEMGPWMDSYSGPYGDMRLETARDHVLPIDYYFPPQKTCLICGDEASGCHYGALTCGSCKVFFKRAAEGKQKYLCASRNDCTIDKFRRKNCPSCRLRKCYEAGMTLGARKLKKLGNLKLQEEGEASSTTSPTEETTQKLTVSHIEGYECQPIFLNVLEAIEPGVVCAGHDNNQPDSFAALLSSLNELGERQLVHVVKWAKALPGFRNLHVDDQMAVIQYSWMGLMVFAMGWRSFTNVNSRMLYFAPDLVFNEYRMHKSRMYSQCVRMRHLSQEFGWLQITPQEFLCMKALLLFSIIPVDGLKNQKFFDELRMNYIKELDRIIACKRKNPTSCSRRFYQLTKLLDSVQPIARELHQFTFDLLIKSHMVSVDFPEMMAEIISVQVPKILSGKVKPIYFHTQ
Description: Antagonist activity at human androgen receptor expressed in CV1 cells

Androgen receptor [2] = molecular target: T1, Androgen receptor; experiment: biochemical
Description: Binding affinity to human androgen receptor expressed in CV1 cells

Androgen receptor [3] = molecular target: T1, Androgen receptor; remark: listed apart in the source
Description: Agonist activity at human androgen receptor expressed in CV1 cells

SMILES | IC50 (Androgen receptor [1]) | Ki (Androgen receptor [2]) | EC50 (Androgen receptor [3])
CC1(C)C=Cc2cc3c(C(F)(F)F)cc(O)nc3cc2N1 | 27 nM | 73 nM | –
CCC1CCc2cc3c(C(F)(F)F)cc(=O)[nH]c3cc2N1 (stereo unspecified) | 14 nM | 11 nM | –
O=c1cc(C(F)(F)F)c2ccc(NC3CCCC3)cc2[nH]1 | 149 nM | 1000 nM | –
O=c1cc(C(F)(F)F)c2ccc(NC3CCCCC3)cc2[nH]1 | 507 nM | 1000 nM | –
O=c1cc(C(F)(F)F)c2ccc(NCc3ccccc3)cc2[nH]1 | 294 nM | 163 nM | –
O=c1cc(C(F)(F)F)c2ccc(NCC(F)(F)F)cc2o1 | 50 nM | – | –
O=c1cc(C(F)(F)F)c2ccc(N(CC(F)(F)F)CC(F)(F)F)cc2o1 | 63 nM | – | 73 nM
CCNc1ccc2[nH]c(=O)cc(C(F)(F)F)c2c1 | 111 nM | – | –
O=c1cc(C(F)(F)F)c2cc(NC3CCCC3)ccc2[nH]1 | 42 nM | 74 nM | –
